Assay results from US20050153943A1, “Methods of simultaneously treating mucositis and fungal infection” (priority 2002, published 2005).
≈ marks a conversion by molar mass, not a printed value. Like-named read-outs stand apart in the source and are kept apart here. Blank lines part the entries; values can stand above or below the molecule they belong to.

Columns and labels:
Aspergillus f. [1] = assay: Direct comparison of CMT-3 and Amphotericin B, agar plates (Example 39); format: cell-based
Experimental: The plates were prepared as described above, using […], 0.50, 1.00 and 2.00 concentrations of each of the drugs tested. DMSO was used as a control

Absidia Species = assay: IC50 and MIC on microplate agar gels (Example 40); format: cell-based; conditions: agar gel, 0.25-4.00 μg/ml, 30° C., 24 hours, NI = no detectable inhibition
Experimental: (§1) Each drug was dissolved in DMSO (1.0 mg/ml) as a stock solution and stored at −20° C. Just prior to use, each stock solution was thawed and diluted in DMSO to produce 6 different 100× concentrations. Potato dextrose agar was dissolved in distilled water (39 g/L) and sterilized at […] (250° F.) for 15 min. The agar solution was mixed with each drug (in a water bath at 60° C.) to make a series of final concentrations, i.e. 0.00, 0.25, 0.50, 1.00, 2.00, 4.00 μg/ml. The mixtures were then transferred to 24-well plates (1 ml/well). After the gel had formed, the fungus in PBS (spore count=1-5×10^4/ml) was inoculated by pipetting 10 μl onto each gel. The plates were incubated at 30° C. for different times, depending on the requirement of each species, e.g. 24 hours for Penicillium, Rhizopus, Tricothecium, Ulocladium, Absidia, Aspergilus, Caindida, Cunninghamella, 3 days for Scedosporium, and 5 days for Fonsecae and Phialophora.
(§2) “*” indicates better than or similar results to Amphotericin B. “NI” indicates no detectable inhibition.

Aspergilus Fumigatus = assay: IC50 and MIC on microplate agar gels (Example 40); format: cell-based; conditions: agar gel, 0.25-4.00 μg/ml, 30° C., 24 hours, NI = no detectable inhibition
Experimental: as §1, §2

Candida Albicans = assay: IC50 and MIC on microplate agar gels (Example 40); format: cell-based; conditions: agar gel, 0.25-4.00 μg/ml, 30° C., 24 hours, NI = no detectable inhibition
Experimental: as §1, §2

Fonsecae Species = assay: IC50 and MIC on microplate agar gels (Example 40); format: cell-based; conditions: agar gel, 0.25-4.00 μg/ml, 30° C., 5 days, NI = no detectable inhibition
Experimental: as §1, §2

Penicillium Species = assay: IC50 and MIC on microplate agar gels (Example 40); format: cell-based; conditions: agar gel, 0.25-4.00 μg/ml, 30° C., 24 hours, NI = no detectable inhibition
Experimental: as §1, §2

Rhizopus Species = assay: IC50 and MIC on microplate agar gels (Example 40); format: cell-based; conditions: agar gel, 0.25-4.00 μg/ml, 30° C., 24 hours, NI = no detectable inhibition
Experimental: as §1, §2

Scedosporium Apiospermum = assay: IC50 and MIC on microplate agar gels (Example 40); format: cell-based; conditions: agar gel, 0.25-4.00 μg/ml, 30° C., 3 days, NI = no detectable inhibition
Experimental: as §1, §2

Ulocladium Species = assay: IC50 and MIC on microplate agar gels (Example 40); format: cell-based; conditions: agar gel, 0.25-4.00 μg/ml, 30° C., 24 hours, NI = no detectable inhibition
Experimental: as §1, §2

[2] = system: 11 different species of fungi; assay: Summary of Example 40 over the whole panel; format: cell-based; conditions: 11 tested fungi, up to 4.00 μg/ml
Experimental: as §1, §2

Penicillium spores = assay: Fungistatic or fungicidal activity: pre-treatment of spores, dilution, regrowth on agar (Example 41); format: cell-based
Experimental: In the pre-treatment phase of the experiment, Penicillium spores were suspended in PBS to achieve a spore count of 10^7/ml. CMT-3 and Amphotericin B were dissolved in DMSO to reach a concentration of 1.0 mg/ml as stock solutions. 10 or 50 μl aliquots of these stock solutions were added to the incubation mixture (containing 1.0 ml of 10^7/ml of Penicillium spores in PBS) to achieve a final concentration of 10 μg/ml or 50 μg/ml, respectively, for both drugs. The various incubations of Penicillium were carried out for 24 hours at 30° C.
After the pre-treatment phase, the reaction mixtures were diluted 1000 times with PBS, reducing the concentration of both drugs to 0.01 μg/ml or 0.05 μg/ml, and reducing the Penicillium spore count to 10^4/ml. These drug concentrations of both CMT-3 and Amphotericin B would not be expected to inhibit the growth of the viable Penicillium spores.
Controls were then prepared. Before incubation, each tube was either not diluted further, or diluted to ½ or ¼ with PBS to produce tubes with three different spore counts, ie, 10^4/ml, or 0.5×10^4/ml, or 0.25×10^4/ml. These cultures were then inoculated on potato dextrose agar gels in 24-well plates, and incubated at 30° C. for 48 hours to determine the rate of growth of the fungus as described before.
The controls were prepared from the suspension in the pre-treatment phase containing only Penicillium spores 10^7/ml, and PBS. This control was diluted by 1000 times with PBS to produce a spore count of 10^4/ml. 1.0 ml of this diluted spore suspension was added to eight tubes. The stock solutions of CMT-3 and Amphotericin B, and DMSO were also diluted by 1000 times with PBS (the new concentration being 1.0 μg/ml for both drugs and 0.1% for DMSO), and 10 or 50 μl of these solutions was added into the above tubes. The final concentrations in each tube was either 0.01 μg/ml or 0.05 μg/ml for both drugs (CMT-3 or AmB), or 0.001% or 0.005% for DMSO. These tubes were further treated as described above to determine the growth of the fungus as controls.

Aspergillus f. [3] = assay: Direct comparison of CMT-3 and Amphotericin B, agar plates (Example 39); format: cell-based; remark: listed apart in the source
[4] = system: Aspergillus fumigatus ATCC 1022; assay: Fungal growth on SABHI agar containing CMT (Example 38); format: cell-based; conditions: 25 μg/ml, 48 hours, 30° C., growth grade
Experimental: (§3) The following fungi were inoculated onto potato dextrose agar (PDA) from stock cultures and incubated aerobically at 30° C.: Aspergillus [NT] 1022, Penicillium sp. (laboratory isolate), Candida albicans, ATCC 14053, and Rhizopus sp. […] The conidia were suspended in 0.9% saline and the turbidity was adjusted to match a 0.5 MacFarland standard (equivalent to approximately 1.5×10^8 cells). Candida albicans was suspended in saline and adjusted to 0.5 MacFarland in a similar manner. These suspensions were diluted 1:100 in sterile 0.9% saline. SABHI Agar (Difco) pH 7.0 was prepared in 100 ml amounts and sterilized at 121° C. for 15 min. […] SABHI Agar plates of each CMT and SAHBI agar without CMT using dimethylsulphoxide (DMSO) as a control were inoculated with 10 μl of conidia suspension of Aspergillus fumigatus, Penicillium sp. and Rhizopus sp. and 10 μl suspension of Candida albicans prepared as described above. The plates were then incubated aerobically for 24 hour and for 48 hours at 30° C. The results are set forth in Table 1 (24 hr. incubation) and Table 2 (48 hr. incubation). [table]

[5] = system: Candida albicans, ATCC 14053; assay: as above; format: cell-based; conditions: 25 μg/ml, 30° C., growth grade
Experimental: as §3

[6] = system: Penicillium sp. (laboratory isolate); assay: as above; format: cell-based; conditions: 25 μg/ml, 30° C., growth grade
Experimental: as §3

Rhizopus sp. = assay: as above; format: cell-based; conditions: 25 μg/ml, 30° C., growth grade
Experimental: as §3

Tricothecium Species = assay: IC50 and MIC on microplate agar gels (Example 40); format: cell-based; conditions: agar gel, 0.25-4.00 μg/ml, 30° C., 24 hours, NI = no detectable inhibition
Experimental: as §1, §2

[7] = system: eleven different species of fungi; conditions: cited from earlier work
Cunninghamella Species = assay: IC50 and MIC on microplate agar gels (Example 40); format: cell-based; conditions: Cunninghamella; agar gel, 0.25-4.00 μg/ml, 30° C., 24 hours; NI = no detectable inhibition; read-out: IC50
Experimental: as §1, §2

Phialophora Verrucosa = assay: IC50 and MIC on microplate agar gels (Example 40); format: cell-based; conditions: Phialophora verrucosa, 120 h; agar gel, 0.25-4.00 μg/ml, 30° C., 5 days; NI = no detectable inhibition; read-out: IC50
Experimental: as §1, §2

Compound: C[C@@H]1[C@H](O)[C@@H](C)/C=C/C=C/C=C/C=C/C=C/C=C/C=C/[C@H](O[C@@H]2O[C@H](C)[C@@H](O)[C@H](N)[C@@H]2O)C[C@@H]2O[C@](O)(C[C@@H](O)C[C@@H](O)[C@H](O)CC[C@@H](O)C[C@@H](O)CC(=O)O[C@H]1C)C[C@H](O)[C@H]2C(=O)O [AmB, Amphotericin B]
Growth grade at Conc. 0.125 μg/ml (Aspergillus f. [1]; 0.125 μg/ml): 4 (Level of growth in the absence of anti-fungal agent (control).)
Growth grade at Conc. 0.50 μg/ml (Aspergillus f. [1]; 0.50 μg/ml): 1 (75% reduction in growth in colonies compared to control.)
Fungal growth inhibited (Aspergillus f. [1]; 1.0 μg/ml): 100%
Growth grade at Conc. 1.00 μg/ml (Aspergillus f. [1]; 1.00 μg/ml): 0 (complete inhibition of growth.)
Fungal growth inhibited (Aspergillus f. [1]; 2.0 μg/ml): 100%
Growth grade at Conc. 2.00 μg/ml (Aspergillus f. [1]; 2.00 μg/ml): 0 (complete inhibition of growth.)
IC50 (Absidia Species): 1.0 µg/mL (≈ 1.08 µM)
MIC (Absidia Species): 4.0 µg/mL (≈ 4.33 µM)
IC50 (Aspergilus Fumigatus): 0.8 µg/mL (≈ 0.866 µM)
MIC (Aspergilus Fumigatus): 2.0 µg/mL (≈ 2.16 µM)
IC50 (Candida Albicans): 0.5 µg/mL (≈ 0.541 µM)
MIC (Candida Albicans): 1.0 µg/mL (≈ 1.08 µM)
IC50 (Fonsecae Species): 4.0 µg/mL (≈ 4.33 µM)
MIC (Fonsecae Species): >4.0 µg/mL
IC50 (Penicillium Species): 0.12 µg/mL (≈ 0.13 µM)
MIC (Penicillium Species): 0.25 µg/mL (≈ 0.271 µM)
IC50 (Rhizopus Species): 0.4 µg/mL (≈ 0.433 µM)
MIC (Rhizopus Species): 1.0 µg/mL (≈ 1.08 µM)
IC50 (Scedosporium Apiospermum): 4.0 µg/mL (≈ 4.33 µM)
MIC (Scedosporium Apiospermum): >4 µg/mL
IC50 (Ulocladium Species): 1.0 µg/mL (≈ 1.08 µM)
MIC (Ulocladium Species): 2.0 µg/mL (≈ 2.16 µM)
Antifungal activity over the panel (summary in words) [2]: the same or less antifungal activity than CMT-3
Growth rate of Penicillium in control cultures with low drug concentration (Penicillium spores; 0.01 and 0.05 μl/ml, no pre-treatment): did not inhibit the growth
Type of antifungal activity (fungistatic or fungicidal) (Penicillium spores; against Penicillium): fungistatic
Growth of Penicillium on agar gels after pretreatment of spores (Penicillium spores; pretreatment with 10 and 50 μl/ml for 24 hours at 30° C., diluted 1000 times, 48 hours on agar): same rate of growth as PBS and DMSO controls
Growth grade at Conc. 0.25 μg/ml (Aspergillus f. [3]): 2 (50% reduction in growth of colonies compared to control.)

Compound: CC1c2cccc(O)c2C(=O)C2=C(O)C3(O)C(=O)C(C(N)=O)=C(O)CC3C(O)C21 (centres unmarked) [COL 8, 4-dedimethylaminodoxycycline]
Growth at 25 μg/ml compared to control at 48 hours [4]: 4 (Level of growth in the absence of anti-fungal agent (control).)
Growth at 25 μg/ml compared to control at 24 hrs incubation ([5]; 24 hrs): 4 (Level of growth in the absence of anti-fungal agent (control).)
Growth at 25 μg/ml compared to control at 48 hours ([5]; 48 hours): 4 (Level of growth in the absence of anti-fungal agent (control).)
Growth at 25 μg/ml compared to control at 24 hrs incubation ([6]; 24 hrs): 3 (25% reduction in growth of colonies compared to control.)
Growth at 25 μg/ml compared to control at 48 hours ([6]; 48 hours): 4 (Level of growth in the absence of anti-fungal agent (control).)
Growth at 25 μg/ml compared to control at 24 hrs incubation (Rhizopus sp.; 24 hrs): 4 (Level of growth in the absence of anti-fungal agent (control).)
Growth at 25 μg/ml compared to control at 48 hours (Rhizopus sp.; 48 hours): 4 (Level of growth in the absence of anti-fungal agent (control).)
IC50 (Penicillium Species): 2.0 µg/mL (≈ 4.98 µM)
MIC (Penicillium Species): >4 µg/mL
IC50 (Scedosporium Apiospermum): 2.0 µg/mL (≈ 4.98 µM)
MIC (Scedosporium Apiospermum): >4 µg/mL
IC50 (Tricothecium Species): 0.7 µg/mL (≈ 1.74 µM)
MIC (Tricothecium Species): 2.0 µg/mL (≈ 4.98 µM)
IC50 (Ulocladium Species): 2.0 µg/mL (≈ 4.98 µM)
MIC (Ulocladium Species): >4 µg/mL
Antifungal activity over the panel (summary in words) [2]: had effects on some of these fungi
Anti-fungal activity in vitro (Lu et al.) [7]: weak or no anti-fungal activity

IC50 (Absidia Species; Absidia, read-out: IC50): > 4 µg/mL
IC50 (Aspergilus Fumigatus; read-out: IC50): > 4 µg/mL
IC50 (Candida Albicans; Candida albicans, read-out: IC50): > 4 µg/mL
IC50 (Cunninghamella Species): > 4 µg/mL
IC50 (Fonsecae Species; 120 h, read-out: IC50): > 4 µg/mL
IC50 (Penicillium Species; Penicillium, read-out: IC50): > 4 µg/mL
IC50 (Phialophora Verrucosa): > 4 µg/mL
IC50 (Rhizopus Species; Rhizopus, read-out: IC50): > 4 µg/mL
IC50 (Scedosporium Apiospermum; Scedosporium apiospermum, 72 h, read-out: IC50): > 4 µg/mL
IC50 (Tricothecium Species; read-out: IC50): 4 µg/mL (≈ 9 µM)
MIC (Tricothecium Species; read-out: MIC): > 4 µg/mL
IC50 (Ulocladium Species; read-out: IC50): > 4 µg/mL
Compound: C[C@H]1c2cccc(O)c2C(=O)C2=C(O)[C@]3(O)C(=O)C(C(N)=O)=C(O)[C@@H](N(C)C)[C@@H]3[C@@H](O)[C@@H]21 [Doxycycline, 6α-deoxy-5-hydroxytetracycline, reference compound]
